Structures are written as SMILES. ≈ marks a conversion by molar mass, not a printed value.

One data set can be described thus: in vivo. Particulars: male, Dutch Belted, rabbit, topical or ocular, 4 mg. An excerpt:
The animals' eyes were examined by a board certified veterinary ophthalmologist using a slitlamp biomicroscope and an indirect ophthalmoscope. The exams occurred predose and on the indicated study days prior to sacrifice, as applicable. On specified days, at least two animals/time point were euthanized for the collection of blood (for plasma) and ocular tissues (aqueous humor, vitreous humor, retina, and sclera/choroid-RPE).
For the initial study, the animals were acclimated to study conditions for 16 days prior to dose administration. At dosing, the animals weighed 1721 to 1941 g and were 5 months of age. All animals were housed in individual, suspended, stainless steel cages during acclimation and the test period. Certified Hi-Fiber Rabbit Diet #5325 (PMI) was provided. Water was provided fresh daily, ad libitum. Environmental controls for the animal room were set to maintain a temperature of 16 to 22° C. (Deviation), a relative humidity of 50±20% (Deviation), and a 12-hour light/12-hour dark cycle. […]
The dosing formulation was drawn up into a 1-mL luer-lock syringe using a standard 21-gauge, 1-inch needle; any bubbles were expressed, and the standard needle was replaced by a 30-gauge microneedle 700 μm in length. […] Any dosing observations were recorded. […]

A short description of data set [1]: Ocular distribution and pharmacokinetics after suprachoroidal injection of CLS-AX, 0.03 or 0.1 mg/eye (second study). Type of data set: in vivo, male pigmented Dutch Belted rabbits. Particulars: for tmax: Retina; for half-life: sclera/choroid-RPE (SCR), SCR; for Cmax: topical or ocular, study day 2.
A short description of data set [2]: Solubility of the API (product profile). Type of data set: physicochemical.

On to `CNC(=O)c1ccccc1Sc1ccc2c(/C=C/c3ccccn3)n[nH]c2c1` [Axitinib], for which the half-life (usually the time needed for the level to fall by half in the phase considered) was 102 days in the data set “in vivo”; 10.7 days in data set [1] (male, Dutch Belted, rabbit, other: suprachoroidal injection, 0.03 mg/eye); 15.8 days in data set [1] (male, Dutch Belted, rabbit, other: suprachoroidal injection, 0.1 mg/eye). Besides, the Cmax (usually the highest concentration seen after dosing) is 857 ng/mL in “in vivo” (Cmax); 4480 ng/g in data set [1] (male, Dutch Belted, rabbit, retina, 0.03 mg/eye); 6260 ng/g in data set [1] (male, Dutch Belted, rabbit, retina, 0.1 mg/eye). The “eyes having quantifiable levels in retina” value is 1 of 4 in data set [1] (0.03 mg/eye, days 31 and 61); 1 of 4 in data set [1] (0.1 mg/eye, Days 45 through 66). For the same molecule, the tmax in data set [1] (0.03 mg/eye) and in data set [1] (0.1 mg/eye) was 1 days in each case. Moreover, in data set [1] (male, Dutch Belted, rabbit, other: suprachoroidal injection, retina, 0.03 mg/eye, by day 15, essentially below, read-out: mean retina concentrations (limit of quantitation)), the concentration at 15 day is less than 16.7 ng/g. Also, the “mean AUC0-t, higher dose versus lower dose” value in data set [1] (retina, 0.1 vs 0.03 mg/eye) turned out to be 1.6 fold. The “mean Cmax, higher dose versus lower dose” value in data set [1] (retina, 0.1 vs 0.03 mg/eye) came out at 1.4 fold. For the same molecule, the “Solubility (solvent)” value in data set [2] was “DMSO”. For the same molecule, in data set [2] (in water), the concentration in solution (solubility) was 0.2 µg/mL (≈ 0.517 µM).

The record behind these values is patent US20230089914A1 (Clearside Biomedical, Inc., priority 2020, published 2023).
